Measured values from patent publication US8227406B2, “Antimicrobial peptides” (Dermagen AB, priority 2006, dated 2012).
Values joined by “and” are separate entries in the source; they are usually repeats but may differ in a detail not shown here. Equal entries are not always repeated.

How the values were obtained:
[1] = system: Staphylococcus aureus ATCC29213; experiment: Radial diffusion assay (RDA), S. aureus; format: cell-based; set-up: Data (RDA antimicrobial activity, single replicates) / Mean (RDA antimicrobial activity): unit not given here; conditions: S. aureus; for Data (RDA antimicrobial activity, single replicates): individual replicate; for Mean (RDA antimicrobial activity): mean of 3
Procedure: (§1) Peptides. Peptides were from Sigma-Genosys, generated by a peptide synthesis platform (PEPscreen®, Custom Peptide Libraries, SigmaGenosys). Yield was ˜1-6 mg, and peptide length 20 amino acids. MALDI-ToF Mass Spectrometry was perfomed on these peptides. Average Crude Purity of 20mers was ˜60%. Peptides were supplied lyophilized and in a 96-well tube rack. Prior to biological testing the PEPscreen peptides were diluted in dH2O (5 mM stock), and stored at −20 C. This stock solution was used for the subsequent experiments.
(§2) Eschericia coli ATCC25922, Staphylococcus aureus ATCC29213, and the fungal isolate Candida albicans ATCC90028 were obtained from the Department of Bacteriology, Lund University Hospital.
(§3) Radial diffusion assays (RDA) were performed essentially as described earlier (Lehrer, R. I., Rosenman, M., Harwig, S. S., Jackson, R. & Eisenhauer, P. (1991) Ultrasensitive assays for endogenous antimicrobial polypeptides, J Immunol Methods. 137, 167-73). Briefly, bacteria (E. coli, S. aureus) or fungi (C. albicans) were grown to midlogarithmic phase in 10 ml of full-strength (3% w/v) trypticase soy broth (TSB) (Becton-Dickinson, Cockeysville, Md.). The microorganisms were washed once with 10 mM Tris, pH 7.4. 4×10^6 bacterial cfu or 1×10^5 fungal cfu was added to 5 ml of the underlay agarose gel, consisting of 0.03% (w/v) TSB, 1% (w/v) low-electroendoosmosistype (Low-EEO) agarose (Sigma, St Louise Mo.) and a final concentration of 0.02% (v/v) Tween 20 (Sigma). The underlay was poured into a Ø 85 mm petri dish. After agarose solidified, 4 mm-diameter wells were punched and 6 μl of test sample was added to each well. Plates were incubated at 37° C. for 3 hours to allow diffusion of the peptides. The underlay gel was then covered with 5 ml of molten overlay (6% TSB and 1% Low-EEO agarose in dH2O). Antimicrobial activity of a peptide is visualized as a clear zone around each well after 18-24 hours of incubation at 37° C. for bacteria and 28° C. for Candida albicans. Other examples of peptides that were screened and found to show an increased effect against the above mentioned microorgansism are listed below. Some of the results are found in table 1c showing the effects against C. albicans, table 1d E. coli and table 1e S. aureus.

[2] = system: Eschericia coli ATCC25922; experiment: Radial diffusion assay (RDA), E. coli; format: cell-based, Escherichia coli; set-up: Data (RDA antimicrobial activity, single replicates) / Mean (RDA antimicrobial activity): unit not given here; conditions: E. coli; for Data (RDA antimicrobial activity, single replicates): individual replicate; for Mean (RDA antimicrobial activity): mean of 3
Procedure: as §1, §2, §3

[3] = system: Candida albicans ATCC90028; experiment: Radial diffusion assay (RDA), C. albicans; format: cell-based; set-up: unit not given here; conditions: Table 1c; for RDA Data (single replicates), C. albicans: individual values
Procedure: as §1, §2, §3

Substance: PKR-21: growth factor derived peptide, untagged parent of PKR21WWW; sequence not printed (PKRKKKGGKNGKNRRNRKKKN; listed as Homo sapiens)
- Data (RDA antimicrobial activity, single replicates) ([1]; peptide 0.1 μM): 0
- Mean (RDA antimicrobial activity) ([1]; peptide 0.1 μM): 0.00
- Data (RDA antimicrobial activity, single replicates) ([1]; peptide 0.5 μM): 0
- Mean (RDA antimicrobial activity) ([1]; peptide 0.5 μM): 0.00
- Data (RDA antimicrobial activity, single replicates) ([1]; peptide 1 μM): 0
- Mean (RDA antimicrobial activity) ([1]; peptide 1 μM): 0.00
- Data (RDA antimicrobial activity, single replicates) ([1]; peptide 5 μM): 0
- Mean (RDA antimicrobial activity) ([1]; peptide 5 μM): 0.00
- Data (RDA antimicrobial activity, single replicates) ([1]; peptide 10 μM): 0.17 and 0.4 and 0.77
- Mean (RDA antimicrobial activity) ([1]; peptide 10 μM): 0.45
- Data (RDA antimicrobial activity, single replicates) ([1]; peptide 50 μM): 1.06 and 1.6 and 1.24
- Mean (RDA antimicrobial activity) ([1]; peptide 50 μM): 1.30
- Data (RDA antimicrobial activity, single replicates) ([1]; peptide 100 μM): 2.63 and 2.54 and 1.84
- Mean (RDA antimicrobial activity) ([1]; peptide 100 μM): 2.34
- Data (RDA antimicrobial activity, single replicates) ([2]; peptide 0.1 μM): 0
- Mean (RDA antimicrobial activity) ([2]; peptide 0.1 μM): 0.00
- Data (RDA antimicrobial activity, single replicates) ([2]; peptide 0.5 μM): 0.3 and 0.7 and 0.58
- Mean (RDA antimicrobial activity) ([2]; peptide 0.5 μM): 0.53
- Data (RDA antimicrobial activity, single replicates) ([2]; peptide 1 μM): 0.56 and 0.97 and 1.02
- Mean (RDA antimicrobial activity) ([2]; peptide 1 μM): 0.85
- Data (RDA antimicrobial activity, single replicates) ([2]; peptide 5 μM): 0.63 and 1.65 and 0.55
- Mean (RDA antimicrobial activity) ([2]; peptide 5 μM): 0.94
- Data (RDA antimicrobial activity, single replicates) ([2]; peptide 10 μM): 0.94 and 1.08 and 1.02
- Mean (RDA antimicrobial activity) ([2]; peptide 10 μM): 1.01
- Data (RDA antimicrobial activity, single replicates) ([2]; peptide 50 μM): 1.16 and 1.52 and 1.01
- Mean (RDA antimicrobial activity) ([2]; peptide 50 μM): 1.23
- Data (RDA antimicrobial activity, single replicates) ([2]; peptide 100 μM): 1.34 and 1.37 and 1.39
- Mean (RDA antimicrobial activity) ([2]; peptide 100 μM): 1.37
- RDA Mean, C. albicans ([3]; peptide 0.1 μM): 0.00
- RDA Data (single replicates), C. albicans ([3]; peptide 0.1 μM): 0.00
- RDA Mean, C. albicans ([3]; peptide 0.5 μM): 0.00
- RDA Data (single replicates), C. albicans ([3]; peptide 0.5 μM): 0.00
- RDA Mean, C. albicans ([3]; peptide 1 μM): 0.00
- RDA Data (single replicates), C. albicans ([3]; peptide 1 μM): 0.00
- RDA Mean, C. albicans ([3]; peptide 5 μM): 0.00
- RDA Data (single replicates), C. albicans ([3]; peptide 5 μM): 0.00
- RDA Mean, C. albicans ([3]; peptide 10 μM): 0.46
- RDA Data (single replicates), C. albicans ([3]; peptide 10 μM): 0.42 and 0.39 and 0.58
- RDA Mean, C. albicans ([3]; peptide 50 μM): 4.04
- RDA Data (single replicates), C. albicans ([3]; peptide 50 μM): 4.66 and 3.95 and 3.51
- RDA Mean, C. albicans ([3]; peptide 100 μM): 4.59
- RDA Data (single replicates), C. albicans ([3]; peptide 100 μM): 4.65 and 4.56 and 4.55

Substance: GKR-22: growth factor derived peptide, untagged parent of GKR22WWW; sequence not printed (GKRKKKGKGLGKKRDPCLRKYK; listed as Homo sapiens)
- Data (RDA antimicrobial activity, single replicates) ([1]; peptide 0.1 μM): 0
- Mean (RDA antimicrobial activity) ([1]; peptide 0.1 μM): 0.00
- Data (RDA antimicrobial activity, single replicates) ([1]; peptide 0.5 μM): 0
- Mean (RDA antimicrobial activity) ([1]; peptide 0.5 μM): 0.00
- Data (RDA antimicrobial activity, single replicates) ([1]; peptide 1 μM): 0.4 and 0.26 and 0.25
- Mean (RDA antimicrobial activity) ([1]; peptide 1 μM): 0.30
- Data (RDA antimicrobial activity, single replicates) ([1]; peptide 5 μM): 1.87 and 1.67 and 2.03
- Mean (RDA antimicrobial activity) ([1]; peptide 5 μM): 1.86
- Data (RDA antimicrobial activity, single replicates) ([1]; peptide 10 μM): 2.37 and 2.46 and 1.95
- Mean (RDA antimicrobial activity) ([1]; peptide 10 μM): 2.26
- Data (RDA antimicrobial activity, single replicates) ([1]; peptide 50 μM): 3.03 and 3.09 and 2.96
- Mean (RDA antimicrobial activity) ([1]; peptide 50 μM): 3.03
- Data (RDA antimicrobial activity, single replicates) ([1]; peptide 100 μM): 3.88 and 3.94 and 3.07
- Mean (RDA antimicrobial activity) ([1]; peptide 100 μM): 3.63
- Data (RDA antimicrobial activity, single replicates) ([2]; peptide 0.1 μM): 0
- Mean (RDA antimicrobial activity) ([2]; peptide 0.1 μM): 0.00
- Data (RDA antimicrobial activity, single replicates) ([2]; peptide 0.5 μM): 0
- Mean (RDA antimicrobial activity) ([2]; peptide 0.5 μM): 0.00
- Data (RDA antimicrobial activity, single replicates) ([2]; peptide 1 μM): 0
- Mean (RDA antimicrobial activity) ([2]; peptide 1 μM): 0.00
- Data (RDA antimicrobial activity, single replicates) ([2]; peptide 5 μM): 1.88 and 1.85 and 2.07
- Mean (RDA antimicrobial activity) ([2]; peptide 5 μM): 1.93
- Data (RDA antimicrobial activity, single replicates) ([2]; peptide 10 μM): 2.07 and 3.47 and 2.74
- Mean (RDA antimicrobial activity) ([2]; peptide 10 μM): 2.76
- Data (RDA antimicrobial activity, single replicates) ([2]; peptide 50 μM): 3.68 and 3.65 and 3.61
- Mean (RDA antimicrobial activity) ([2]; peptide 50 μM): 3.65
- Data (RDA antimicrobial activity, single replicates) ([2]; peptide 100 μM): 4.5 and 5.24 and 4.19
- Mean (RDA antimicrobial activity) ([2]; peptide 100 μM): 4.64
- RDA Mean, C. albicans ([3]; peptide 0.1 μM): 0.00
- RDA Data (single replicates), C. albicans ([3]; peptide 0.1 μM): 0.00
- RDA Mean, C. albicans ([3]; peptide 0.5 μM): 0.00
- RDA Data (single replicates), C. albicans ([3]; peptide 0.5 μM): 0.00
- RDA Mean, C. albicans ([3]; peptide 1 μM): 0.00
- RDA Data (single replicates), C. albicans ([3]; peptide 1 μM): 0.00
- RDA Mean, C. albicans ([3]; peptide 5 μM): 0.00
- RDA Data (single replicates), C. albicans ([3]; peptide 5 μM): 0.00
- RDA Mean, C. albicans ([3]; peptide 10 μM): 0.00
- RDA Data (single replicates), C. albicans ([3]; peptide 10 μM): 0.00
- RDA Mean, C. albicans ([3]; peptide 50 μM): 1.04
- RDA Data (single replicates), C. albicans ([3]; peptide 50 μM): 1.04 and 1.08 and 1.01
- RDA Mean, C. albicans ([3]; peptide 100 μM): 3.16
- RDA Data (single replicates), C. albicans ([3]; peptide 100 μM): 3.66 and 3.31 and 2.50

Substance: GKRKKKGKGLGKKRDPCLRKYKWWW [GKR-22-WWW]
- Data (RDA antimicrobial activity, single replicates) ([1]; peptide 0.1 μM): 0
- Mean (RDA antimicrobial activity) ([1]; peptide 0.1 μM): 0.00
- Data (RDA antimicrobial activity, single replicates) ([1]; peptide 0.5 μM): 0.36 and 0.49 and 0.6
- Mean (RDA antimicrobial activity) ([1]; peptide 0.5 μM): 0.48
- Data (RDA antimicrobial activity, single replicates) ([1]; peptide 1 μM): 3.6 and 3.67 and 3.78
- Mean (RDA antimicrobial activity) ([1]; peptide 1 μM): 3.68
- Data (RDA antimicrobial activity, single replicates) ([1]; peptide 5 μM): 3.87 and 4.57 and 4.53
- Mean (RDA antimicrobial activity) ([1]; peptide 5 μM): 4.32
- Data (RDA antimicrobial activity, single replicates) ([1]; peptide 10 μM): 6.04 and 6.87 and 5.73
- Mean (RDA antimicrobial activity) ([1]; peptide 10 μM): 6.21
- Data (RDA antimicrobial activity, single replicates) ([1]; peptide 50 μM): 7.12 and 8.12 and 7.41
- Mean (RDA antimicrobial activity) ([1]; peptide 50 μM): 7.55
- Data (RDA antimicrobial activity, single replicates) ([1]; peptide 100 μM): 7.4 and 8.78 and 8.05
- Mean (RDA antimicrobial activity) ([1]; peptide 100 μM): 8.08
- Data (RDA antimicrobial activity, single replicates) ([2]; peptide 0.1 μM): 0
- Mean (RDA antimicrobial activity) ([2]; peptide 0.1 μM): 0.00
- Data (RDA antimicrobial activity, single replicates) ([2]; peptide 0.5 μM): 0.14 and 0.85 and 0.17
- Mean (RDA antimicrobial activity) ([2]; peptide 0.5 μM): 0.39
- Data (RDA antimicrobial activity, single replicates) ([2]; peptide 1 μM): 2.74 and 3.2 and 2.59
- Mean (RDA antimicrobial activity) ([2]; peptide 1 μM): 2.84
- Data (RDA antimicrobial activity, single replicates) ([2]; peptide 5 μM): 2.97 and 3.58 and 3.2
- Mean (RDA antimicrobial activity) ([2]; peptide 5 μM): 3.25
- Data (RDA antimicrobial activity, single replicates) ([2]; peptide 10 μM): 5.67 and 5.68 and 5.48
- Mean (RDA antimicrobial activity) ([2]; peptide 10 μM): 5.61
- Data (RDA antimicrobial activity, single replicates) ([2]; peptide 50 μM): 6.61 and 6.64 and 6.47
- Mean (RDA antimicrobial activity) ([2]; peptide 50 μM): 6.57
- Data (RDA antimicrobial activity, single replicates) ([2]; peptide 100 μM): 7.8 and 8.04 and 8.12
- Mean (RDA antimicrobial activity) ([2]; peptide 100 μM): 7.99
- RDA Mean, C. albicans ([3]; peptide 0.1 μM): 0.00
- RDA Data (single replicates), C. albicans ([3]; peptide 0.1 μM): 0.00
- RDA Mean, C. albicans ([3]; peptide 0.5 μM): 0.00
- RDA Data (single replicates), C. albicans ([3]; peptide 0.5 μM): 0.00
- RDA Mean, C. albicans ([3]; peptide 1 μM): 0.00
- RDA Data (single replicates), C. albicans ([3]; peptide 1 μM): 0.00
- RDA Mean, C. albicans ([3]; peptide 5 μM): 0.00
- RDA Data (single replicates), C. albicans ([3]; peptide 5 μM): 0.00
- RDA Mean, C. albicans ([3]; peptide 10 μM): 0.66
- RDA Data (single replicates), C. albicans ([3]; peptide 10 μM): 0.50 and 0.94 and 0.54
- RDA Mean, C. albicans ([3]; peptide 50 μM): 1.65
- RDA Data (single replicates), C. albicans ([3]; peptide 50 μM): 1.95 and 1.59 and 1.40
- RDA Mean, C. albicans ([3]; peptide 100 μM): 5.55
- RDA Data (single replicates), C. albicans ([3]; peptide 100 μM): 5.30 and 5.74 and 5.62
